Laboratory results: ChEMBL document CHEMBL5365427, “Discovery and Structural Optimization of Covalent ZAP-70 Kinase Inhibitors against Psoriasis” (J Med Chem, 2023)
pIC50: −log10 of the molar value. The source made the active and inactive calls. The rule behind the calls is not given here.

What was measured:
[1] = target: Mitogen-activated protein kinase 8 (Homo sapiens) (UniProt P45983); assay: Inhibition of JNK1 (unknown origin) at 1 uM relative to control
Mus musculus [2] = assay: Anti-inflammatory activity in imiquimod-induced BALB/c mouse psoriasis model assessed as reduction in immune cell infiltration at TOP administration, 2 % applied for 7 days by hematoxylin and eosin staining based assay; assay type: functional, organism-based; conditions: time 7.0 day
[3] = target: T1, Serine/threonine-protein kinase PLK4 (Homo sapiens) (UniProt O00444); assay: Inhibition of PLK4 (unknown origin) at 1 uM relative to control
T1 sequence (whole entry): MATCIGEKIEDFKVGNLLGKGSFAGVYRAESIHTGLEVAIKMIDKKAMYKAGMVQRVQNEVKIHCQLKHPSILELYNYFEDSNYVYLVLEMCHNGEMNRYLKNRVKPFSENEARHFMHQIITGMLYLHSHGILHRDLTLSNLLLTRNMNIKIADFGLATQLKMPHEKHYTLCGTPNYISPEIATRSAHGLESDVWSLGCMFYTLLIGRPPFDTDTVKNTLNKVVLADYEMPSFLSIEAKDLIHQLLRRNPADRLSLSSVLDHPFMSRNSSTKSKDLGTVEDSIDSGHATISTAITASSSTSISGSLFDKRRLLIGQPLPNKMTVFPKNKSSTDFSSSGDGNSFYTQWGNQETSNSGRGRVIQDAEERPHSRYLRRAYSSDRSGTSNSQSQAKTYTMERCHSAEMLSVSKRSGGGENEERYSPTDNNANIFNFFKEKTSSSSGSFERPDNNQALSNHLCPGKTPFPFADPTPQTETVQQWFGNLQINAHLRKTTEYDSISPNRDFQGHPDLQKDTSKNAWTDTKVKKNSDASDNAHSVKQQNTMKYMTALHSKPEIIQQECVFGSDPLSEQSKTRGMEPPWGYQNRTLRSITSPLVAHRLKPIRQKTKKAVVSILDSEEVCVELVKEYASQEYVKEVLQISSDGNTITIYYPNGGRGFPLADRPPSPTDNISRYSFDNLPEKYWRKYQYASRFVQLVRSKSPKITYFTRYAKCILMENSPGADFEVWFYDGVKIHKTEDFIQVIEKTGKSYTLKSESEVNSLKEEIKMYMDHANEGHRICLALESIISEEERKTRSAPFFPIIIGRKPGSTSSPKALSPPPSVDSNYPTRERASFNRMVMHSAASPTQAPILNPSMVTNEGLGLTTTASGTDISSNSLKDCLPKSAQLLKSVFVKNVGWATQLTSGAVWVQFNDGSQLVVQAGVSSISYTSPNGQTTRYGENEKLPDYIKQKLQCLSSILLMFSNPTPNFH

[4] = target: T2, Tyrosine-protein kinase SYK (Homo sapiens, UniProt P43405); assay: Inhibition of SYK (unknown origin) using ULight-TK peptide as substrate at 1 uM incubated for 120 mins in presence of ATP by Lance Ultra Kinase assay relative to control
[5] = target: Mitogen-activated protein kinase 10 (Homo sapiens) (UniProt P53779); assay: Inhibition of JNK3 (unknown origin) at 1 uM relative to control
Sequence of Mitogen-activated protein kinase 10 (Homo sapiens) (P53779 whole entry): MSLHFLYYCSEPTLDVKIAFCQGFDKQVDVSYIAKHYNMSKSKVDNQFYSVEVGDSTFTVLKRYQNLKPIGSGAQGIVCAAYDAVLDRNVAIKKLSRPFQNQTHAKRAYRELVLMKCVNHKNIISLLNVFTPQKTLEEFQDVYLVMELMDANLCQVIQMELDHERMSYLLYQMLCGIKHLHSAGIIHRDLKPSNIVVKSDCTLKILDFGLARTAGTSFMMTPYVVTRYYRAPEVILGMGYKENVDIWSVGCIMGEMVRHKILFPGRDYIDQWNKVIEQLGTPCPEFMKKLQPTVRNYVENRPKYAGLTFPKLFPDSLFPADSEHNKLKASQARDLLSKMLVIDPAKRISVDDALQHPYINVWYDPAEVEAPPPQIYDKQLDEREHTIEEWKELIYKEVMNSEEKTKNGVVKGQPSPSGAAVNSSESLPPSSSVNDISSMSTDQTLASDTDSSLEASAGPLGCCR

Splenocyte [6] = assay: Immunosuppressive activity in BALB/c mouse Splenocyte assessed as reduction in frequency of CD69 positive CD4 positive T cells at 400 nM incubated for 48 hrs by flow cytometry analysis (reference value: 21.3%); assay type: functional; parameters: scale not given: the % may be the effect or the level left
Splenocyte [7] = assay: Immunosuppressive activity in LPS-induced BALB/c mouse Splenocyte assessed as effect on CD69 expression at 100 to 400 nM incubated for 48 hrs by flow cytometry analysis; assay type: functional, cell-based; conditions: dose 100-400 nM
[8] = target: T3, Tyrosine-protein kinase ZAP-70 (Homo sapiens) (UniProt P43403); assay: Inhibition of ZAP-70 (unknown origin) at 1 uM relative to control
T3 sequence (whole entry): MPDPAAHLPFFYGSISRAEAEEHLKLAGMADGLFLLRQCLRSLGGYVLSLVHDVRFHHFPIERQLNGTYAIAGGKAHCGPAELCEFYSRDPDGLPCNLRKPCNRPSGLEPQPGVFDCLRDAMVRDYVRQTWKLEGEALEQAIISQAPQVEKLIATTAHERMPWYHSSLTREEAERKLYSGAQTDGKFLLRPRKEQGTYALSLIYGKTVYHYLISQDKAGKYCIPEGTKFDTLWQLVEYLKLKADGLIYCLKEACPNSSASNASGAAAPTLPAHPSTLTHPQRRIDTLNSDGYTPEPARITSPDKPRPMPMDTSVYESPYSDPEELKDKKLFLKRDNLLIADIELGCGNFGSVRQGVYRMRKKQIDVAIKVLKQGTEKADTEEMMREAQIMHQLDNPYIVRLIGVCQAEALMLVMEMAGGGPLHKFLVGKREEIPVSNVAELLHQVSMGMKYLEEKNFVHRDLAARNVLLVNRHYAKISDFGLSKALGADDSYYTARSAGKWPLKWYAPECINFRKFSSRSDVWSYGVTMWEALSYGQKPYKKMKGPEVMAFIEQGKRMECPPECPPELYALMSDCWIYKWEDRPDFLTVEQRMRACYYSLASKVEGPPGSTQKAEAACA

Mus musculus [9] = assay: Anti-inflammatory activity in imiquimod-induced BALB/c mouse psoriasis model assessed as decrease in clinical sign of psoriasis in skin at TOP administration, 2 % applied for 7 days; assay type: functional, organism-based; conditions: time 7.0 day
[10] = target: T2, Tyrosine-protein kinase SYK; assay: Inhibition of SYK (unknown origin) using ULight-TK peptide as substrate incubated for 120 mins in presence of ATP by Lance Ultra Kinase assay
Mus musculus [11] = assay: Anti-inflammatory activity in imiquimod-induced BALB/c mouse psoriasis model assessed as […] in skin thickness at TOP administration, 2 % applied for 7 days by hematoxylin and eosin staining based assay; assay type: functional, organism-based; conditions: time 7.0 day
Jurkat = assay: Immunosuppressive activity in anti-CD3/CD28 stimulated human Jurkat cells assessed as reduction in LAT phosphorylation level at 100 to 400 nM incubated for 48 hrs by Western blotting analysis; assay type: functional, cell-based; conditions: dose 100-400 nM
[12] = target: Mitogen-activated protein kinase 9 (Homo sapiens) (UniProt P45984); assay: Inhibition of JNK2 (unknown origin) at 1 uM relative to control
Sequence of Mitogen-activated protein kinase 9 (Homo sapiens) (P45984 whole entry, looked up): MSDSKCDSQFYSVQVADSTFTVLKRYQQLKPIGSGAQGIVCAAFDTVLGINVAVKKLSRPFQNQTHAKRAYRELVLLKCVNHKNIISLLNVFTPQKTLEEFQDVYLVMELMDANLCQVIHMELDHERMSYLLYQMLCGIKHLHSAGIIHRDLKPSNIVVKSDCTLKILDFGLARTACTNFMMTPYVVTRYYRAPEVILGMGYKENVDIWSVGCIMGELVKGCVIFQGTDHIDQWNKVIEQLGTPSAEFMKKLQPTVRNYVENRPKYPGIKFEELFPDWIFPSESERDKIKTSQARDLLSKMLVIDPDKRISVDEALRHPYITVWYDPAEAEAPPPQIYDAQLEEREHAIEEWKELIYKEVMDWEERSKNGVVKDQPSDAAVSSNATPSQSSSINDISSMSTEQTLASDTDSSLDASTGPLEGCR

Sequence of Mitogen-activated protein kinase 8 (Homo sapiens) (P45983 whole entry): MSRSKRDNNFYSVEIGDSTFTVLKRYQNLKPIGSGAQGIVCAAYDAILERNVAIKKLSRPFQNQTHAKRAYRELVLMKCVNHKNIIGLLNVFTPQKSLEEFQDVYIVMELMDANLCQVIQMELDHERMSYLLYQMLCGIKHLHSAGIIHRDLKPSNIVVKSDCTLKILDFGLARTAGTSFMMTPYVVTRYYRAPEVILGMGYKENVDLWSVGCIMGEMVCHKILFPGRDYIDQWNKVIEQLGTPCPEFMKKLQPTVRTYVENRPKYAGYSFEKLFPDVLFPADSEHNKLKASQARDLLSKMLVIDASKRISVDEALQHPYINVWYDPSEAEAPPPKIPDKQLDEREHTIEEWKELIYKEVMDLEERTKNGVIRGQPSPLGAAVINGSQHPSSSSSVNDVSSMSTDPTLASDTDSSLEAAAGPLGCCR

C=CC(=O)Nc1cc(CNc2nc(Nc3ccc(N4CCOCC4)c(OC)c3)c(C(N)=O)c3nccn23)ccc1Cl
inhibition [1]: > 90% | Activity (Mus musculus [2]): Active | inhibition [3]: > 90% | inhibition [4]: 72.5% | inhibition [5]: > 90% | Activity (Splenocyte [6]): 10.8% | Activity (Splenocyte [7]): inactive | inhibition [8]: 98.3% | Activity (Mus musculus [9]): Active | pIC50 [10]: 5.93 | Activity (Mus musculus [11]): Active | Activity (Jurkat): Active | inhibition [12]: > 90%
